Experimental data from patent US20100125059A1, “1-BIARYLAZETIDINONE DERIVATIVE” (Teijin Pharma Limited, priority 2007, published 2010).
Like-named read-outs stand apart in the source and are kept apart here.

What was measured:
Caco-2 cells = test: Cholesterol absorption inhibition assay (in vitro), [14C] cholesterol mixed micelles; assay type: cell-based; conditions: Homo sapiens, 24 hours, read-out: cholesterol absorption inhibitory activity; for inhibition at 10 µM: concentration of 10 μM; for inhibition at 12.5 µM: concentration of 12.5 μM
Method: This assay measures cholesterol absorption inhibitory activity by adding mixed micelles containing [^14C] cholesterol to cells and measuring cholesterol taken in the cells as oleic acid cholesteryl ester. The assay is conducted after Caco-2 cells are seeded on multi-well plates and cultured (culture medium: DMEM containing 10% fetal bovine serum, 1% non-essential amino acids, 1% penicillin, and 1% streptomycin) for 2 weeks. To each well, the micelle solution (in an amount required to provide the following final concentrations: 600 μM of sodium oleate, 50 μM of phosphatidyl choline, 5 mM of sodium taurocholate, 2.5 μM of cholesterol, and 2.5 μM of [^14C] cholesterol) and a test compound solution (in an amount required to provide the final concentration of 0.5 to 25 μM) or a solvent as a control are added, and incubation is started at 37° C. 24 hours later, the culture medium is removed, and the lipid component is extracted with hexane/2-propanol (3:2, v/v) and applied onto thin-layer silica gel plates. After drying, each plate is eluted with a mixture of hexane, diethyl ether, and acetic acid in a ratio of 83:16:1. The plates are photoexposed on imaging plates and analyzed using BAS-2500 (FUJIFILM). The amounts of light exposure of the areas corresponding to the cholesteryl ester are calculated. Background is measured using a blank space of the plate. Inhibition rates are calculated using values obtained by subtracting the background values from both values of the control and the test sample, respectively, in accordance with the following equation. A test value is calculated as a percentage (%) with respect to the control.
In the Equation 1, A is the control group, BG is a background, and B is the test compound.
The following results were obtained from the measurement by this method on cholesterol absorption inhibitory activity of the compounds of the present invention. The following results were obtained by the evaluation using concentrations of 10 μM and/or 12.5 μM.

[1] = system: hamsters fed a high cholesterol diet; test: Measurement of lipid lowering effect in hamsters fed a high cholesterol diet; assay type: in vivo, Male Golden Syrian hamsters; conditions: Mesocricetus auratus, po, 168 h, gavage once daily, 7 days
How it was run: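 Male Golden Syrian hamsters (6/group) on 0.5% cholesterol diet, dosed by gavage once daily in corn oil at 0.01 to 10 mg/kg; serum and liver sampled 4 h after last dose. TC, TG and LDL-C measured enzymatically; effects expressed as % suppression versus control and normal-diet groups.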

[2] = read-out: serum TG lowering effect (serum TG lowering rate)
[3] = read-out: serum TC lowering effect (suppression rate of an increase in serum TC concentration)
[4] = read-out: serum LDL-C lowering effect (suppression rate of an increase in serum LDL-C concentration)
[5] = read-out: liver TC lowering effect (suppression rate of an increase in liver TC concentration)

| Compound | inhibition at 10 µM (Caco-2 cells) [%] | inhibition at 12.5 µM (Caco-2 cells) [%] | inhibition in vivo at 0.1 mg/kg [1, 2] [%] | further results |
| --- | --- | --- | --- | --- |
| O=C1[C@H](SCCc2ccc(F)cc2)[C@@H](c2ccc(O)cc2)N1c1ccc(-c2cccnc2)cc1 [Example 5, (3R,4R)-3-[2-(4-fluorophenyl)ethylthio]-4-(4-hydroxyphenyl)-1-[4-(pyridin-3-yl)phenyl]azetidin-2-one] | ≥ 50 | ≥ 60 | ≥ 20 | – |
| COc1ncccc1-c1ccc(N2C(=O)[C@H](SC[C@H](O)c3ccc(F)cc3)[C@H]2c2ccc(O)cc2)cc1 [Example 6, (3R,4R)-3-[(2R)-2-(4-fluorophenyl)-2-hydroxyethylthio]-4-(4-hydroxyphenyl)-1-[4-(2-methoxypyridin-3-yl)phenyl]azetidin-2-one] | – | ≥ 60 | ≥ 20 | inhibition in vivo at 0.1 mg/kg [1, 3]: ≥ 50% |
| COc1ccc(-c2ccc(N3C(=O)[C@H](SC[C@H](O)c4ccc(F)cc4)[C@H]3c3ccc(O)cc3)cc2)c(OC)n1 [Example 7, (3R,4R)-3-[(2R)-2-(4-fluorophenyl)-2-hydroxyethylthio]-1-[4-(2,6-dimethoxypyridin-3-yl)phenyl]-4-(4-hydroxyphenyl)azetidin-2-one] | ≥ 50 | – | ≥ 20 | – |
| Cc1ccncc1-c1ccc(N2C(=O)[C@H](SC[C@H](O)c3ccc(F)cc3)[C@H]2c2ccc(O)cc2)cc1 [Example 8, (3R,4R)-3-[(2R)-2-(4-fluorophenyl)-2-hydroxyethylthio]-4-(4-hydroxyphenyl)-1-[4-(4-methylpyridin-3-yl)phenyl]azetidin-2-one] | ≥ 50 | – | ≥ 20 | – |
| N#Cc1ccc(-c2ccc(N3C(=O)[C@H](SC[C@H](O)c4ccc(F)cc4)[C@H]3c3ccc(O)cc3)cc2)cn1 [Example 9, 5-(4-{(3R,4R)-3-[(2R)-2-(4-fluorophenyl)-2-hydroxyethylthio]-4-(4-hydroxyphenyl)-2-oxoazetidinyl}phenyl)pyridine-2-carbonitrile] | ≥ 50 | – | ≥ 20 | – |
| O=C1[C@H](SC[C@H](O)c2ccc(F)cc2)[C@@H](c2ccc(O)cc2)N1c1ccc(-c2ccncc2Cl)cc1 [Example 12, (3R,4R)-3-[(2R)-2-(4-fluorophenyl)-2-hydroxyethylthio]-1-[4-(3-chloropyridin-4-yl)phenyl]-4-(4-hydroxyphenyl)azetidin-2-one] | ≥ 50 | – | – | inhibition in vivo at 0.1 mg/kg [1, 4]: ≥ 50% |
| COc1ccc(-c2ccc(N3C(=O)[C@H](SC[C@H](O)c4ccc(F)cc4)[C@H]3c3ccc(O)cc3)cc2)cn1 [Example 14, (3R,4R)-3-[(2R)-2-(4-fluorophenyl)-2-hydroxyethylthio]-4-(4-hydroxyphenyl)-1-[4-(6-methoxypyridin-3-yl)phenyl]azetidin-2-one] | ≥ 50 | – | ≥ 20 | – |
| O=C1[C@H](SC[C@H](O)c2ccc(F)cc2)[C@@H](c2ccc(O)cc2)N1c1ccc(-c2cccnc2Cl)cc1 [Example 15, (3R,4R)-3-[(2R)-2-(4-fluorophenyl)-2-hydroxyethylthio]-1-[4-(2-chloropyridin-3-yl)phenyl]-4-(4-hydroxyphenyl)azetidin-2-one] | ≥ 50 | – | ≥ 20 | inhibition in vivo at 0.1 mg/kg [1, 4]: ≥ 50% |
| COc1ccncc1-c1ccc(N2C(=O)[C@H](SC[C@H](O)c3ccc(F)cc3)[C@H]2c2ccc(O)cc2)cc1 [Example 16, (3R,4R)-3-[(2R)-2-(4-fluorophenyl)-2-hydroxyethylthio]-4-(4-hydroxyphenyl)-1-[4-(4-methoxypyridin-3-yl)phenyl]azetidin-2-one] | ≥ 50 | ≥ 60 | – | inhibition in vivo at 0.01 mg/kg [1, 5]: ≥ 30%; inhibition in vivo at 0.1 mg/kg [1, 3]: ≥ 50% |
| Cc1ccc(-c2ccc(N3C(=O)[C@H](SC[C@H](O)c4ccc(F)cc4)[C@H]3c3ccc(O)cc3)cc2)cn1 [Example 20, (3R,4R)-3-[(2R)-2-(4-fluorophenyl)-2-hydroxyethylthio]-4-(4-hydroxyphenyl)-1-[4-(6-methylpyridin-3-yl)phenyl]azetidin-2-one] | ≥ 50 | ≥ 60 | – | inhibition in vivo at 0.01 mg/kg [1, 5]: ≥ 30%; inhibition in vivo at 0.01 mg/kg [1, 4]: ≥ 30% |
| CN(C)c1ccc(-c2ccc(N3C(=O)[C@H](SC[C@H](O)c4ccc(F)cc4)[C@H]3c3ccc(O)cc3)cc2)cn1 [Example 22, (3R,4R)-3-[(2R)-2-(4-fluorophenyl)-2-hydroxyethylthio]-1-[4-(6-dimethylaminopyridin-3-yl)phenyl]-4-(4-hydroxyphenyl)azetidin-2-one] | ≥ 50 | ≥ 60 | – | inhibition in vivo at 0.01 mg/kg [1, 5]: ≥ 30%; inhibition in vivo at 0.01 mg/kg [1, 4]: ≥ 30%; inhibition in vivo at 0.1 mg/kg [1, 4]: ≥ 50%; inhibition in vivo at 0.1 mg/kg [1, 3]: ≥ 50% |
| COc1cc(O)ccc1[C@@H]1[C@@H](SC[C@H](O)c2ccc(F)cc2)C(=O)N1c1ccc(-c2cccnc2)cc1 [Example 24, (3R,4R)-3-[(2R)-2-(4-fluorophenyl)-2-hydroxyethylthio]-4-(4-hydroxy-2-methoxyphenyl)-1-[4-(pyridin-3-yl)phenyl]azetidin-2-one] | ≥ 50 | – | – | inhibition in vivo at 0.1 mg/kg [1, 5]: ≥ 50%; inhibition in vivo at 0.1 mg/kg [1, 3]: ≥ 50% |
| O=C1[C@H](SC[C@H](O)c2ccc(Cl)c(Cl)c2)[C@@H](c2ccc(O)cc2)N1c1ccc(-c2cccnc2)cc1 [Example 28, (3R,4R)-3-[(2R)-2-(3,4-dichlorophenyl)-2-hydroxyethylthio]-4-(4-hydroxyphenyl)-1-[4-(pyridin-3-yl)phenyl]azetidin-2-one] | ≥ 50 | – | – | inhibition in vivo at 0.1 mg/kg [1, 5]: ≥ 50%; inhibition in vivo at 0.1 mg/kg [1, 3]: ≥ 50% |
| O=C1[C@H](SC[C@H](O)c2ccc(C(F)(F)F)cc2)[C@@H](c2ccc(O)cc2)N1c1ccc(-c2cccnc2)cc1 [Example 43, (3R,4R)-3-{(2R)-2-hydroxy-2-[4-(trifluoromethyl)phenyl]ethylthio}-4-(4-hydroxyphenyl)-1-[4-(pyridin-3-yl)phenyl]azetidin-2-one] | ≥ 50 | – | – | – |
| Cc1cc(N2C(=O)[C@H](SC[C@H](O)c3ccc(F)cc3)[C@H]2c2ccc(O)cc2)ccc1-c1cccnc1 [Example 47, (3R,4R)-3-[(2R)-2-(4-fluorophenyl)-2-hydroxyethylthio]-4-(4-hydroxyphenyl)-1-[3-methyl-4-(pyridin-3-yl)phenyl]azetidin-2-one] | ≥ 50 | – | – | – |
| Cc1ncccc1-c1ccc(N2C(=O)[C@H](SC[C@H](O)c3ccc(F)cc3)[C@H]2c2ccc(O)cc2)cc1 [Example 54, (3R,4R)-3-[(2R)-2-(4-fluorophenyl)-2-hydroxyethylthio]-4-(4-hydroxyphenyl)-1-[4-(2-methylpyridin-3-yl)phenyl]azetidin-2-one] | ≥ 50 | – | – | – |
| COc1ncccc1-c1ccc(N2C(=O)[C@H](SC[C@H](O)c3ccc(Cl)cc3)[C@H]2c2ccc(O)cc2)cc1 [Example 57, (3R,4R)-3-[(2R)-2-(4-chlorophenyl)-2-hydroxyethylthio]-4-(4-hydroxyphenyl)-1-[4-(2-methoxypyridin-3-yl)phenyl]azetidin-2-one] | ≥ 50 | ≥ 60 | – | – |
| CN(C)c1ccc(-c2ccc(N3C(=O)[C@H](SC[C@H](O)c4ccc(Cl)cc4)[C@H]3c3ccc(O)cc3)cc2)cn1 [Example 88, (3R,4R)-3-[(2R)-2-(4-chlorophenyl)-2-hydroxyethylthio]-1-[4-(6-dimethylaminopyridin-3-yl)phenyl]-4-(4-hydroxyphenyl)azetidin-2-one] | – | ≥ 60 | – | – |
| CC(=O)c1cncc(-c2ccc(N3C(=O)[C@H](SC[C@H](O)c4ccc(Cl)cc4)[C@H]3c3ccc(O)cc3)cc2)c1 [Example 105, (3R,4R)-3-[(2R)-2-(4-chlorophenyl)-2-hydroxyethylthio]-1-[4-(5-acetylpyridin-3-yl)phenyl]-4-(4-hydroxyphenyl)azetidin-2-one] | – | ≥ 60 | – | – |
